For the assay, the system named is immature embryos of modified morning glory "aosakaikaryuubaseisaisakibotan". Nature of the assay: Embryoid body induction from cultured immature embryos with different phytohormones. As to conditions: immature embryos cultured as in Example 1A (MS medium, 60 g/l sucrose, 25° C., 2000 lux; NAA 3 mg/l), phytohormone varied. In kind it is cell-based, Ipomoea nil. On the procedure:
Immature embryos were obtained from a parent tree of modified morning glory “aosakaikaryuubaseisaisakibotan”. Each individual immature embryo was separately cultured on an MS medium containing 3 mg/l of NAA and 60 g/l of sucrose at 25° C. under 2000 lux, to thereby obtain an embryoid body from the immature embryo. Each embryoid body obtained from different immature embryo was separately cultured as a discrete strain. Subculturing was repeated using the same medium at an interval of 4 weeks.
In substantially the same manner as in Example 1A, immature embryos were cultured except that phytohormone other than NAA, such as 4-fluorophenoxyacetic acid, 2,4-dichlorophenoxyacetic acid and picloram were used. As is apparent from a result shown in Table 4, in the case of phytohormone other than NAA, no embryoid bodies were produced, and thus mass proliferation was not attained.
Take `O=C(O)COc1ccc(Cl)cc1Cl` [2,4-dichlorophenoxyacetic acid]: the “Number of embryoid bodies formed per immature embryo” value (“Number … per immature embryo” below) was found to be 0.

On to `Nc1c(Cl)c(Cl)nc(C(=O)O)c1Cl` [Picloram, picloram], for which the “Number … per immature embryo” value was 0.

With `O=C(O)COc1ccc(F)cc1` [4-fluorophenoxyacetic acid], the “Number … per immature embryo” value was determined as 0.

On to `O=C(O)Cc1cccc2ccccc12` [NAA], for which the “Number … per immature embryo” value worked out at 10.

The values are drawn from patent publication US20060282913A1, “Method of efficiently growing modified morning glory plant” (SKILL/VISION CO., LTD., priority 2003, published 2006).
